# Marks after values point to notes of the source that are not given here.
# System: third stage larvae of Haemonchus contortus
# Experiment: Haemonchus contortus, Larvae Stage 3 (HcL3) In Vitro Assay
# Format: cell-based
# Settings: Haemonchus contortus third stage larvae in vitro; class mark appended to the Ex # in Table 3
row,Structure (SMILES),HcL3 MED
1,CC(C)C[C@H]1C(=O)O[C@H](Cc2ccc(Cc3cnccc3C3CC3)cc2)C(=O)N(C)[C@@H](CC(C)C)C(=O)O[C@H](C)C(=O)N(C)[C@@H](CC(C)C)C(=O)O[C@H](Cc2ccc(Cc3cnccc3C3CC3)cc2)C(=O)N(C)[C@@H](CC(C)C)C(=O)O[C@H](C)C(=O)N1C [Example 3-306],3-306* (Examples with an asterisk (*) have HcL3 MED values≤1 μM)
2,CC(C)C[C@H]1C(=O)O[C@H](Cc2ccc(Cc3ncccn3)cc2)C(=O)N(C)[C@@H](CC(C)C)C(=O)O[C@H](C)C(=O)N(C)[C@@H](CC(C)C)C(=O)O[C@H](Cc2ccc(Cc3ncccn3)cc2)C(=O)N(C)[C@@H](CC(C)C)C(=O)O[C@H](C)C(=O)N1C [Example 3-73],3-73* (Examples with an asterisk (*) have HcL3 MED values≤1 μM)
3,Cc1nc(Cc2ccc(C[C@H]3OC(=O)[C@H](CC(C)C)N(C)C(=O)[C@@H](C)OC(=O)[C@H](CC(C)C)N(C)C(=O)[C@@H](Cc4ccc(Cc5nc(C)oc5C)cc4)OC(=O)[C@H](CC(C)C)N(C)C(=O)[C@@H](C)OC(=O)[C@H](CC(C)C)N(C)C3=O)cc2)c(C)o1 [Example 3-81],3-81^ (Examples with a carrot (^) have HcL3 MED values>1 and ≤3.3 μM)
4,CC(C)C[C@H]1C(=O)O[C@H](Cc2ccc(Cc3ccccn3)cc2)C(=O)N(C)[C@@H](CC(C)C)C(=O)O[C@H](C)C(=O)N(C)[C@@H](CC(C)C)C(=O)O[C@H](Cc2ccc(Cc3ccccn3)cc2)C(=O)N(C)[C@@H](CC(C)C)C(=O)O[C@H](C)C(=O)N1C [Example 3-27],3-27^ (Examples with a carrot (^) have HcL3 MED values>1 and ≤3.3 μM)
5,CC(C)C[C@H]1C(=O)O[C@H](Cc2ccc(Cc3nc(-c4ccccc4)cs3)cc2)C(=O)N(C)[C@@H](CC(C)C)C(=O)O[C@H](C)C(=O)N(C)[C@@H](CC(C)C)C(=O)O[C@H](Cc2ccc(Cc3nc(-c4ccccc4)cs3)cc2)C(=O)N(C)[C@@H](CC(C)C)C(=O)O[C@H](C)C(=O)N1C [Example 3-36],3-36* (Examples with an asterisk (*) have HcL3 MED values≤1 μM)
6,CC(C)C[C@H]1C(=O)O[C@H](Cc2ccc(Cc3cscn3)cc2)C(=O)N(C)[C@@H](CC(C)C)C(=O)O[C@H](C)C(=O)N(C)[C@@H](CC(C)C)C(=O)O[C@H](Cc2ccc(Cc3cscn3)cc2)C(=O)N(C)[C@@H](CC(C)C)C(=O)O[C@H](C)C(=O)N1C [Example 3-45],3-45* (Examples with an asterisk (*) have HcL3 MED values≤1 μM)

# Same assay, conditions: approximately 96 hours incubation; multiple-resistant field isolate
row,Structure (SMILES),HcL3 MED (symbol after Ex#)
1,Cc1csc(Cc2ccc(C[C@H]3OC(=O)[C@H](CC(C)C)N(C)C(=O)[C@@H](C)OC(=O)[C@H](CC(C)C)N(C)C(=O)[C@@H](Cc4ccccc4)OC(=O)[C@H](CC(C)C)N(C)C(=O)[C@@H](C)OC(=O)[C@H](CC(C)C)N(C)C3=O)cc2)n1 [Example 4-90],4-90^ (Examples with a carrot (^) have HcL3 MED values>1 and ≤3.3 μM)
2,CC(C)C[C@H]1C(=O)O[C@H](Cc2ccc(Cc3cccs3)cc2)C(=O)N(C)[C@@H](CC(C)C)C(=O)O[C@H](C)C(=O)N(C)[C@@H](CC(C)C)C(=O)O[C@H](Cc2ccccc2)C(=O)N(C)[C@@H](CC(C)C)C(=O)O[C@H](C)C(=O)N1C [Example 4-5],4-5^ (Examples with a carrot (^) have HcL3 MED values>1 and ≤3.3 μM)
3,CC(C)C[C@H]1C(=O)O[C@H](Cc2ccc(Cc3ccsn3)cc2)C(=O)N(C)[C@@H](CC(C)C)C(=O)O[C@H](C)C(=O)N(C)[C@@H](CC(C)C)C(=O)O[C@H](Cc2ccccc2)C(=O)N(C)[C@@H](CC(C)C)C(=O)O[C@H](C)C(=O)N1C [Example 4-36],4-36^ (Examples with a carrot (^) have HcL3 MED values>1 and ≤3.3 μM)
4,COc1ccccc1Cc1ccc(C[C@H]2OC(=O)[C@H](CC(C)C)N(C)C(=O)[C@@H](C)OC(=O)[C@H](CC(C)C)N(C)C(=O)[C@@H](Cc3ccccc3)OC(=O)[C@H](CC(C)C)N(C)C(=O)[C@@H](C)OC(=O)[C@H](CC(C)C)N(C)C2=O)cc1 [Example 2-12],2-12^ (Examples with a carrot (^) have HcL3 MED values>1 and ≤3.3 μM)
5,CC(C)C[C@H]1C(=O)O[C@H](Cc2ccc(Cc3cnco3)cc2)C(=O)N(C)[C@@H](CC(C)C)C(=O)O[C@H](C)C(=O)N(C)[C@@H](CC(C)C)C(=O)O[C@H](Cc2ccccc2)C(=O)N(C)[C@@H](CC(C)C)C(=O)O[C@H](C)C(=O)N1C [Example 4-135],4-135^ (Examples with a carrot (^) have HcL3 MED values>1 and ≤3.3 μM)
6,Cc1nnsc1Cc1ccc(C[C@H]2OC(=O)[C@H](CC(C)C)N(C)C(=O)[C@@H](C)OC(=O)[C@H](CC(C)C)N(C)C(=O)[C@@H](Cc3ccccc3)OC(=O)[C@H](CC(C)C)N(C)C(=O)[C@@H](C)OC(=O)[C@H](CC(C)C)N(C)C2=O)cc1 [Example 4-116],4-116^ (Examples with a carrot (^) have HcL3 MED values>1 and ≤3.3 μM)
7,COc1cc(F)ccc1Cc1ccc(C[C@H]2OC(=O)[C@H](CC(C)C)N(C)C(=O)[C@@H](C)OC(=O)[C@H](CC(C)C)N(C)C(=O)[C@@H](Cc3ccccc3)OC(=O)[C@H](CC(C)C)N(C)C(=O)[C@@H](C)OC(=O)[C@H](CC(C)C)N(C)C2=O)cc1 [Example 2-9],2-9* (Examples with an asterisk (*) have HcL3 MED values≤1 μM)
8,Cc1scnc1C(O)c1ccc(C[C@H]2OC(=O)[C@H](CC(C)C)N(C)C(=O)[C@@H](C)OC(=O)[C@H](CC(C)C)N(C)C(=O)[C@@H](Cc3ccccc3)OC(=O)[C@H](CC(C)C)N(C)C(=O)[C@@H](C)OC(=O)[C@H](CC(C)C)N(C)C2=O)cc1 (stereo partly shown) [Example 4-56],4-56^ (Examples with a carrot (^) have HcL3 MED values>1 and ≤3.3 μM)
9,Cc1ccc(Cc2ccc(C[C@H]3OC(=O)[C@H](CC(C)C)N(C)C(=O)[C@@H](C)OC(=O)[C@H](CC(C)C)N(C)C(=O)[C@@H](Cc4ccccc4)OC(=O)[C@H](CC(C)C)N(C)C(=O)[C@@H](C)OC(=O)[C@H](CC(C)C)N(C)C3=O)cc2)cn1 [Example 4-101],4-101^ (Examples with a carrot (^) have HcL3 MED values>1 and ≤3.3 μM)
10,CC(C)C[C@H]1C(=O)O[C@H](Cc2ccc(Cc3cocn3)cc2)C(=O)N(C)[C@@H](CC(C)C)C(=O)O[C@H](C)C(=O)N(C)[C@@H](CC(C)C)C(=O)O[C@H](Cc2ccccc2)C(=O)N(C)[C@@H](CC(C)C)C(=O)O[C@H](C)C(=O)N1C [Example 4-52],4-52* (Examples with an asterisk (*) have HcL3 MED values≤1 μM)
11,Cc1nc(Cc2ccc(C[C@H]3OC(=O)[C@H](CC(C)C)N(C)C(=O)[C@@H](C)OC(=O)[C@H](CC(C)C)N(C)C(=O)[C@@H](Cc4ccccc4)OC(=O)[C@H](CC(C)C)N(C)C(=O)[C@@H](C)OC(=O)[C@H](CC(C)C)N(C)C3=O)cc2)cs1 [Example 4-66],4-66^ (Examples with a carrot (^) have HcL3 MED values>1 and ≤3.3 μM)
12,CC(C)C[C@H]1C(=O)O[C@H](Cc2ccc(Cc3ncc(Cl)s3)cc2)C(=O)N(C)[C@@H](CC(C)C)C(=O)O[C@H](C)C(=O)N(C)[C@@H](CC(C)C)C(=O)O[C@H](Cc2ccccc2)C(=O)N(C)[C@@H](CC(C)C)C(=O)O[C@H](C)C(=O)N1C [Example 4-111],4-111^ (Examples with a carrot (^) have HcL3 MED values>1 and ≤3.3 μM)
13,CC(C)C[C@H]1C(=O)O[C@H](Cc2ccc(Cc3nccs3)cc2)C(=O)N(C)[C@@H](CC(C)C)C(=O)O[C@H](C)C(=O)N(C)[C@@H](CC(C)C)C(=O)O[C@H](Cc2ccccc2)C(=O)N(C)[C@@H](CC(C)C)C(=O)O[C@H](C)C(=O)N1C [Example 4-31],4-31* (Examples with an asterisk (*) have HcL3 MED values≤1 μM)
